Measured values as given in patent US12005127B2, “DNA-PK inhibitors” (VERTEX PHARMACEUTICALS INCORPORATED, priority 2018, dated 2024).

Columns and labels:
[1] = target: T1, DNA-PK (Homo sapiens, UniProt P78527); experiment: DNA-PK inhibition assay (radiometric 33P-ATP kinase assay); format: biochemical; conditions: competitive tight-binding fit
Description: Compounds were screened for their ability to inhibit DNA-PK kinase using a standard radiometric assay. Briefly, in this kinase assay the transfer of the terminal ^33P-phosphate in ^33P-ATP to a peptide substrate is interrogated. The assay was carried out in 384-well plates to a final volume of 50 μL per well containing approximately 6 nM DNA-PK, 50 mM HEPES (pH 7.5), 10 mM MgCl2, 25 mM NaCl, 0.01% BSA, 1 mM DTT, 10 μg/mL sheared double-stranded DNA (obtained from Sigma), 0.8 mg/mL DNA-PK peptide (Glu-Pro-Pro-Leu-Ser-Gln-Glu-Ala-Phe-Ala-Asp-Leu-Trp-Lys-Lys-Lys, obtained from American Peptide), and 100 μM ATP. Accordingly, compounds of the invention were dissolved in DMSO to make 10 mM initial stock solutions. Serial dilutions in DMSO were then made to obtain the final solutions for the assay. A 0.75 μL aliquot of DMSO or inhibitor in DMSO was added to each well, followed by the addition of ATP substrate solution containing ^33P-ATP (obtained from Perkin Elmer). The reaction was started by the addition of DNA-PK, peptide and ds-DNA. After 45 min, the reaction was quenched with 25 μL of 5% phosphoric acid. The reaction mixture was transferred to MultiScreen HTS 384-well PH plates (obtained from Millipore), allowed to bind for one hour, and washed three times with 1% phosphoric acid. Following the addition of 50 μL of Ultima Gold™ high efficiency scintillant (obtained from Perkin Elmer), the samples were counted in a Packard TopCount NXT Microplate Scintillation and Luminescence Counter (Packard BioScience). The Ki values were calculated using Microsoft Excel Solver macros to fit the data to the kinetic model for competitive tight-binding inhibition. In Tables 1 and 2 below, Ki of less than 0.001 micromolar for the inhibition of DNA-PK is indicated as “A”; Ki of equal to or greater than 0.001 micromolar and less than 0.01 micromolar for the inhibition of DNA-PK as “B”; Ki of equal to or greater than 0.01 micromolar and less than 0.1 micromolar for the inhibition of DNA-PK as “C”; Ki of equal to or greater than 0.1 micromolar and less than 1 micromolar for the inhibition of DNA-PK for “D”; and Ki of equal to or greater than 1 micromolar as “E.”

[2] = target: T1, DNA-PK; experiment: DNA-PK cellular assay (pDNA-PK Ser2056 sandwich ELISA, NCS-induced DSBs); format: cell-based; parameters: endogenous in cells; host or cells: A549 (human NSCLC); conditions: pDNA-PK (Ser2056) in A549 cells, NCS 50 ng/ml, 15 minutes
Text: DNA-PK is recruited to and activated by double-strand breaks (DSB) in DNA and plays a critical role in the non-homologous end-joining (NHEJ) repair mechanism. Upon activation, DNA-PK undergoes rapid autophosphorylation at Ser2056. The measure of pDNA-PK (Ser2056) in response to DNA DSBs provides a cellular signaling assay to evaluate potential DNA-PK kinase inhibitors.
Neocarzinostatin (NCS) was used as a radiomimetic to induce DNA DSBs. The sandwich ELISA used the Meso Scale Discovery electrochemiluminescence technology platform which typically provides greater sensitivity than traditional ELISA formats.
A549 (human NSCLC) cells are plated at 25,000 cells/well in 100 uL of DMEM (Invitrogen cat #11995-040) supplemented with 1% Pen/Strep (Invitrogen cat #15070-063) and 10% FBS (Hyclone cat #SH30071.03HI) on black clear bottom 96 well plates (Costar #3904) and allowed to adhere overnight at 37° C. in 5% CO2. The following day, the compounds and NCS solutions are prepared by adding 100 ul of DMEM growth media per well in a Corning polypropylene V-bottom deep well plate (cat #3357). The HP Compound Dilution D300 instrument was used to add compounds to the appropriate wells using the setting logarithmic and 16-point titration singlet.
The DMEM NCS solution was prepared by adding NCS to DMEM media at 200 ng/ml (final assay concentration, 50 ng/ml). 100 ul of the DMEM/NCS solution is added to the wells with the compounds. 100 ul of this solution is then immediately added to the A549 cells. The cells are then incubated for 15 minutes at 37° C.
The complete lysis buffer is prepared by adding 1% Phosphatase inhibitor (Sigma cat #P2850) and 1% Protease Inhibitor (Sigma cat #P8340) to the Lanthascreen cellular assay lysis buffer (Invitrogen cat #PV5598). The media from the plate was removed by flicking and patting dry. 60 uL/well of the complete lysis buffer is added to each well. These plates are then incubated for at least 5 minutes in the lysis buffer at room temperature to ensure complete lysis. At this point the lysates can be transferred to prepared ELISA plates.
The prepared ELISA plates were prepared blocking the Mesoscale Goat-Anti-Mouse (GAM) plates with 150 uL/well of 3% Blocker A (Mesoscale cat #R93-BA) for one hour at room temperature with shaking. The capture antibody is prepared by diluting the mouse monoclonal anti-total DNA-PK (AbCAM cat #ab1832) to 3 ug/mL in 1% Blocker A. The blocked plates rinsed once with 200 uL D-PBS. The capture antibody (25 ul/well) was added to each well and allowed to incubate for an hour at room temperature while shaking. This was rinsed once with 200 ul D-PBS before adding 25 uL of the prepared cell lysate from the cell plates to the Mesoscale GAM ELISA plate. The lysate is then incubated on the plates for one hour at room temperature with shaking. The detection antibody (Epitomics rabbit anti-pS2056-DNA-PK) is prepared at a 1/1000 dilution (to a final concentration of 450 ng/mL) in 1% Blocker A. The GAM plates are washed once with 200 uL of D-PBS and then 25 uL/well of the detection antibody is added to the plate. This incubates for one hour at room temperature with shaking. The Sulfotag is prepared by adding Sulfo-Tag Goat-Anti-Rabbit antibody (Mesoscale cat #R32AB-1) at a 1/500 dilution (1 ug/mL) to 1% Blocker A. The GAM plates are washed with 200 uL of D-PBS and then 25 uL of the Sulfotag preparation is added to each well. Once the plates have been incubated with the final solution, the Sulfotag, for 1 hour, they are washed once with 200 uL of D-PBS. The 1× Read Buffer (Mesoscale cat #R32-TC) is made by diluting the 4× buffer in ddH20. 150 uL of 1× buffer is added to each well of the GAM plate and then the plate is read on the Sector Imager 2400. The readout (electrochemiluminescence) was plotted against the concentration of each compound and the IC50s were generated using Prism software (GraphPad Prism version 6.0e for Macintosh). […]

Structure (SMILES)	Ki ([1]; Table 1, 100 μM ATP) [µM]	IC50 ([2]; Table 1) [µM]	Ki ([1]; Table 2, 100 μM ATP) [µM]	IC50 ([2]; Table 2) [µM]
O=C(N[C@H]1CC[C@@H](Oc2cc(N3CCOCC3)cc3ncncc23)CC1)C1CC1 [Compound 16, N-[4-(7-morpholinoquinazolin-5-yl)oxycyclohexyl]cyclopropanecarboxamide]	< 0.001	< 0.1	–	–
c1ncc2c(O[C@H]3CC[C@@H](Nc4ncnc5ccoc45)CC3)cc(N3CCOCC3)cc2n1 [Compound 17, N-[4-(7-morpholinoquinazolin-5-yl)oxycyclohexyl]furo[3,2-d]pyrimidin-4-amine]	< 0.001	< 0.1	–	–
CN1CCN(c2nccc(N[C@H]3CC[C@@H](Oc4cc(N5CCOCC5)cc5ncncc45)CC3)n2)CC1 [Compound 18, 2-(4-methylpiperazin-1-yl)-N-[4-(7-morpholinoquinazolin-5-yl)oxycyclohexyl]pyrimidin-4-amine]	< 0.001	< 0.1	–	–
CNC(=O)c1ccnc(N[C@H]2CC[C@@H](Oc3cc(N4CCOCC4)cc4nc(C)ncc34)CC2)n1 [Compound 19]	0.001 to 0.01	< 0.1	–	–
CCOC(=O)N[C@H]1CC[C@@H](Oc2cc(N3CCOCC3)cc3ncncc23)CC1 [Compound 22, ethyl ((1s,4s)-4-((7-morpholinoquinazolin-5-yl)oxy)cyclohexyl)carbamate]	< 0.001	< 0.1	–	–
COc1ccc(COc2cc(N3CCOCC3)cc3ncncc23)cc1 [Compound 52, 4-[5-[(4-methoxyphenyl)methoxy]quinazolin-7-yl]morpholine]	–	–	0.001 to 0.01	≥ 1
COc1ccc(COc2cc(N3CCOCC3)cc3ncnc(OC)c23)cc1 [Compound 53, 4-[4-methoxy-5-[(4-methoxyphenyl)methoxy]quinazolin-7-yl]morpholine]	–	–	0.01 to 0.1	≥ 1
COc1ccc(COc2cc(N3CCOCC3)cc3ncnc(C#N)c23)cc1 [Compound 55, 5-[(4-methoxyphenyl)methoxy]-7-morpholino-quinazoline-4-carbonitrile]	–	–	0.001 to 0.01	≥ 1

More lines, now with the values ahead:

Ki ([1]; Table 1, 100 μM ATP) [µM]	IC50 ([2]; Table 1) [µM]	Ki ([1]; Table 2, 100 μM ATP) [µM]	IC50 ([2]; Table 2) [µM]	Structure (SMILES)
< 0.001	< 0.1	–	–	CNC(=O)c1ccnc(N[C@H]2CC[C@@H](Oc3cc(N4CCOCC4)cc4ncnc(C)c34)CC2)n1 [Compound 13, N-methyl-2-[[4-(4-methyl-7-morpholino-quinazolin-5-yl)oxycyclohexyl]amino]pyrimidine-4-carboxamide]
< 0.001	< 0.1	–	–	CN1CCN(c2cc(N[C@H]3CC[C@@H](Oc4cc(N5CCOCC5)cc5ncncc45)CC3)ncn2)CC1 [Compound 14, 6-(4-methylpiperazin-1-yl)-N-[4-(7-morpholinoquinazolin-5-yl)oxycyclohexyl]pyrimidin-4-amine]
< 0.001	< 0.1	–	–	O=C(N[C@H]1CC[C@@H](Oc2cc(N3CCOCC3)cc3ncncc23)CC1)c1ccncn1 [Compound 15, N-[4-(7-morpholinoquinazolin-5-yl)oxycyclohexyl]pyrimidine-4-carboxamide]
0.001 to 0.01	≥ 1	–	–	COCC(=O)N[C@H]1CC[C@@H](Oc2cc(N3CCOCC3)cc3ncncc23)CC1 [Compound 20, 2-methoxy-N-((1s,4s)-4-((7-morpholinoquinazolin-5-yl)oxy)cyclohexyl)acetamide]
< 0.001	< 0.1	–	–	CC1(C(=O)N[C@H]2CC[C@@H](Oc3cc(N4CCOCC4)cc4ncncc34)CC2)CC1 [Compound 23, 1-methyl-N-((1s,4s)-4-((7-morpholinoquinazolin-5-yl)oxy)cyclohexyl)cyclopropane-1-carboxamide]
< 0.001	< 0.1	–	–	Cn1ccc(N[C@H]2CC[C@@H](Oc3cc(N4CCOCC4)cc4ncncc34)CC2)n1 [Compound 24, 1-methyl-N-((1s,4s)-4-((7-morpholinoquinazolin-5-yl)oxy)cyclohexyl)-1H-pyrazol-3-amine]
–	–	0.1 to 1	≥ 1	COc1ccc(COc2cc(N3CCOCC3)cc3nc[nH]c(=O)c23)cc1 [Compound 51, 5-[(4-methoxyphenyl)methoxy]-7-morpholino-3H-quinazolin-4-one]
